Source: PMC4015961, “New colorimetric screening assays for the directed evolution of fungal laccases to improve the conversion of plant biomass” (BMC Biotechnology, 2013)
Like-named read-outs stand apart in the source and are kept apart here. Values belong to the molecule of their own block, whether it stands above or below them.

Legend:
R2 LRPL [1] = target: T1, R2 LRPL (Thermothelomyces thermophilus, UniProt G2QG31); experiment: endpoint absorbance increase at […] nm; type: biochemical; conditions: 2 mM acetosyringone; tartrate pH 4.0; yeast supernatant
T1 construct: gene lcc1; secreted by S. cerevisiae, crude supernatant

[2] = system: T2, Trametes villosa laccase (TvL); conditions: sodium tartrate pH 4.0; crude commercial enzyme
T2 construct: gene LCC1

R2 LRPL [3] = target: T1, R2 LRPL; experiment: endpoint absorbance increase at […] nm; type: biochemical; conditions: 250 μM sinapic acid; tartrate pH 4.0; yeast supernatant
[4] = system: T3, Trametes villosa laccase (TvL); experiment: absorbance increase at […] nm; type: biochemical; conditions: sodium tartrate pH 4.0; crude commercial enzyme
T3 construct: gene LCC1; crude commercial laccase preparation, Novozymes

[5] = system: T3, Trametes villosa laccase (TvL); experiment: absorbance increase at […] nm; type: biochemical; conditions: sodium tartrate pH 4.0; crude commercial enzyme; assigned by order of preceding sentence and Figure 2A-C

T1 sequence (G2QG31 entry or part of it): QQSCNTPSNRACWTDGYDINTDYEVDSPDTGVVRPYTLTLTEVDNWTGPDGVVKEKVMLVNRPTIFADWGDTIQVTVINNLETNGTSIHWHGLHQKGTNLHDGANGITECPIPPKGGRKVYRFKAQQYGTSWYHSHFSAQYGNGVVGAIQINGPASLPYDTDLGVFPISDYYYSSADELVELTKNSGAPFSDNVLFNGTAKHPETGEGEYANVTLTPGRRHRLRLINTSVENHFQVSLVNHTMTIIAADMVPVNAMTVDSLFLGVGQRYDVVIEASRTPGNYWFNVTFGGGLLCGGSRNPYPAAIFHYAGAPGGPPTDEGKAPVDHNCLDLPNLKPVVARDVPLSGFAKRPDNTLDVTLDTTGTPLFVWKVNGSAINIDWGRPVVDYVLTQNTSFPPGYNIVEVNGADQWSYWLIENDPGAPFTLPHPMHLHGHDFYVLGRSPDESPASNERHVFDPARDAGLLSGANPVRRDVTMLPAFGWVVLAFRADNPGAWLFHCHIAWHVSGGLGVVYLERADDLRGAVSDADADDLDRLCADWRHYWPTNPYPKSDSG

Km [2]: 93 µM
Structure (SMILES): COc1cc(C(C)=O)cc(OC)c1O [acetosyringone, 3′,5′-dimethoxy-4′-hydroxyacetophenone]
endpoint absorbance increase at 520 nm (R2 LRPL [1]): colored responses were linear (absorbance increased with increasing volumes of supernatant) with both laccases

Km [4]: 85 µM
Structure (SMILES): COc1cc(/C=C/C(=O)O)cc(OC)c1O [sinapic acid]
endpoint absorbance increase at 512 nm (R2 LRPL [3]): colored responses were linear (absorbance increased with increasing volumes of supernatant) with both laccases

Km [5]: 120 µM
Structure (SMILES): COc1cc(C=O)cc(OC)c1O [syringaldehyde, 3,5-dimethoxy-4-hydroxybenzaldehyde]
